Read-outs that look alike come from different tables or passages of the source.

The values below come from patent US7951799B2, “Lactam compound, a method for producing the same, and a diabetic therapy by administering the same” (Ajinomoto Co., Inc., priority 2005, dated 2011).

Series [1] has as its system rat adipocytes. Description: Evaluation of sugar transport activity (2-[14C(U)]-deoxy-D-glucose incorporation). The class given is cell-based. To be noted: for EC50 (concentration of test compound corresponding to 50% enhancement action of sugar transport): enhancement action of insulin (100 nM) taken as 100%, 30 min preculture at 37° C. Here is the method: Three male Wistar rats (6 to 7 weeks old) were bled by decapitation, and then laparotomized to extract 3 g of paratesticular fat tissue. […] An amount of 8 mg of collagenase (Type I) was added to carry out digestion treatment for 35 minutes, and undigested fragments were eliminated with a nylon mesh to obtain approximately 3 ml of isolated adipocytes. Collagenase was eliminated by buffer exchange, then, 2% BSA/KRH solution was added for re-suspension to obtain 15 ml of adipocyte suspension. The evaluation of sugar transport activity of the compound of the present invention was carried out with the methods described in the literature (Annual Review of Biochemistry, Volume 55, Page 1059, 1986) as a reference. That is to say, the above adipocyte suspension was distributed into polystyrene test tube, 200 μl each, 100 μl of solution of test substance (10 mg/ml of dimethylsulfoxide solution diluted with KRH) was added, and cultured while shaking at 37° C. for 30 minutes.

Series [2] deals with MDCK cells. Kind of series: Evaluation of membrane permeability using MDCK cells. To be noted: MDCK monolayer; mucous membrane side (pH 6.5) to basal membrane side (pH 7.4); 37° C.
Protocol: (§3) The compound of the present invention was evaluated for membrane permeability using MDCK cells, according to the method below.
(§4) An epithelial cell line derived from dog renal tubule, MDCK (Madin Darby Canine Kidney cell line), is cultured for 3 to 4 days in a flask containing 10% FBS-added D-MEM/F12 culture medium (Manufactured by Gibco) at 37° C. in a carbon dioxide incubator. The cells are detached from the flask with a Trypsin/EDTA solution (Manufactured by Gibco), and unicellularized by pipetting. The cells are suspended in the same medium as described above and placed in a transwell (mucous membrane-side well) of a Transwell plate (manufactured by COSTAR) at 2×10^5 cell/well in a volume of 0.1 ml. The transwell is transferred to the basal membrane-side well where 0.6 ml of the same culture medium has been placed, and the cells are cultured at 37° C. in a carbon dioxide incubator for 3 days. After the culture, the culture media in the mucous membrane-side well and the basal membrane-side well are exchanged for the same culture medium, incubated under the same condition for one day. Thus, satisfactory MDCK monolayer culture cells are obtained.
(§5) During in vitro permeation-absorption experiments, the culture media are eliminated from both wells, the mucous membrane-side well is washed with PBS buffer solution (pH 6.5), and the basal membrane-side well is washed with PBS buffer solution (pH 7.4). Next, 0.1 ml of PBS buffer solution (pH6.5) is added to the mucous membrane-side well, 0.6 ml of PBS buffer solution (pH 7.4) is added to the basal membrane-side well, and equilibration is carried out by incubating for 15 minutes in a 37° C. incubator.
(§6) The mucous membrane-side well is exchanged for 0.1 ml of a solution containing the test substance prepared with PBS buffer solution (pH6.5), and time point when the well is transferred to the basal membrane-side well substituted with 0.6 ml of PBS buffer solution (pH7.4) is taken as the permeation-absorption start time, and thereafter, sampling is performed from the basal membrane-side well over time. The amounts of test substance in the samples sampled in this way are measured by HPLC analysis, and the amount of the substance permeated and absorbed from the mucous membrane side to the basal membrane side according to the reaction time is determined to determine the permeation coefficient (cm/sec).
Series [3] deals with GK/Jcl rats. Kind of series: Evaluation of hypoglycemic action in pathologic rat. The class given is in vivo. The conditions noted are these: 120 minutes after administration, fasted 20 hours. Here is the method: (§1) C57BL/KsJ-db/dbJcl mice (8 to 9 weeks old) or GK/Jcl rats fasted for 20 hours were administered with the test compound by a single oral administration, blood was collected from the tail vein immediately before administration and 30, 60, 120 and 180 minutes after administration, and the blood glucose level was measured with Fuji DryChem5500 (glucose oxidase method). For the test animals, a group comprised 4 to 5 subjects, and the blood glucose level was determined as mean values. The test compound was administered by dissolving in an aqueous solution of 50% polyethyleneglycol 400, or 100% polyethyleneglycol 400.
(§2) The degrees of hypoglycemia calculated based on the blood glucose levels measured according to the methods described above are shown in Table 5 (mouse) and Table 6 (rat). The degree of hypoglycemia was calculated as the percentage of the difference between the blood glucose level at one time point 120 minutes after administration and blood glucose level immediately before administration, with respect to the blood glucose level immediately before administration.

The test system of series [4] is MDCK cells. The conditions noted are these: dog.
Protocol: as §3, §4, §5, §6
In series [5] the test system is C57BL/KsJ-db/dbJcl mice. Kind of series: Evaluation of hypoglycemic action in pathologic mouse. The class given is in vivo. The conditions noted are these: 120 minutes after administration, fasted 20 hours. The method, then: as §1, §2
Setting [6] is: 3 mg/kg single oral administration.
[7] abbreviates: 10 mg/kg single oral administration.

As to `O=C1NCC2=C1[C@@H](c1cccc3ccoc13)N(C(=O)C(F)F)[C@@H]1CCCC[C@H]1N2` [Example 6], in series [1], the “EC50 (concentration of test compound corresponding to 50% enhancement action of sugar transport)” value amounted to 0.58 µg/mL. Besides, in series [2], the Permeation coefficient is recorded as 8 10^−7 cm/sec.
`O=C1NCC2=C1[C@@H](c1cccc3c1OCC3)N(C(=O)CO)[C@@H]1CCCC[C@H]1N2` [Example 13]: in series [1], the “EC50 (concentration of test compound corresponding to 50% enhancement action of sugar transport)” value is 0.90 µg/mL.
With `Cc1cc2cccc([C@@H]3C4=C(CNC4=O)N[C@@H]4CCCC[C@H]4N3C(=O)CO)c2o1` [Example 9], the “EC50 (concentration of test compound corresponding to 50% enhancement action of sugar transport)” value in series [1] amounted to 0.92 µg/mL. For the same compound, the Degree of hypoglycemia is given as 30% in series [3] (setting [6]) and 37% in series [3] (setting [7]). Also, the Permeation coefficient in series [2] is listed as 40 10^−7 cm/sec.
Consider `O=C1NCC2=C1[C@@H](c1cccc3cccnc13)N(C(=O)C(F)F)[C@@H]1CCCC[C@H]1N2` [Example 17], for which, in series [1], the “EC50 (concentration of test compound corresponding to 50% enhancement action of sugar transport)” value is 0.59 µg/mL. The same compound had a Degree of hypoglycemia in series [3] (setting [7]) of 35%. Moreover, the Permeation coefficient in series [4] is 10 10^−7 cm/sec.
In the case of `O=C1NCC2=C1[C@@H](c1cccc3ccnn13)N(C(=O)CO)[C@@H]1CCCC[C@H]1N2` [Example 14], the “EC50 (concentration of test compound corresponding to 50% enhancement action of sugar transport)” value in series [1] was 1.3 µg/mL. Moreover, the Degree of hypoglycemia in series [3] (setting [7]) is 36%.
In the case of insulin, the “sugar transport enhancement action compared to non-insulin added control group” value in series [1] (insulin 100 nM) is 3-9 times.
Consider `O=C1NCC2=C1[C@@H](c1cccc3ccoc13)N(C(=O)CO)[C@@H]1CCCC[C@H]1N2` [Example 1], for which the “EC50 (concentration of test compound corresponding to 50% enhancement action of sugar transport)” value in series [1] amounted to 0.65 µg/mL. Besides, the Degree of hypoglycemia in series [5] (setting [6]) was 4%; in series [5] (setting [7]), 51%. For the same compound, the Permeation coefficient in series [2] was 8 10^−7 cm/sec.
In the case of `COCC(=O)N1[C@@H]2CCCC[C@H]2NC2=C(C(=O)NC2)[C@H]1c1cccc2cc[nH]c12` [Example 5], the “EC50 (concentration of test compound corresponding to 50% enhancement action of sugar transport)” value in series [1] was 0.26 µg/mL. The Degree of hypoglycemia in series [5] (setting [6]) is given as 28%; in series [5] (setting [7]), 41%. The Permeation coefficient in series [2] is reported as 20 10^−7 cm/sec.
`O=C1NCC2=C1[C@@H](c1cccc3cccnc13)N(C(=O)CO)[C@@H]1CCCC[C@H]1N2` [Example 16]: in series [1], the “EC50 (concentration of test compound corresponding to 50% enhancement action of sugar transport)” value stood at 1.36 µg/mL. The Degree of hypoglycemia was 12% in series [5] (setting [6]) and 36% in series [5] (setting [7]). Also, the Permeation coefficient in series [4] is listed as 9 10^−7 cm/sec.
On to `Cc1cc2cccc([C@@H]3C4=C(CNC4=O)N[C@@H]4CCCC[C@H]4N3C(=O)CO)c2[nH]1` [Example 11], for which, in series [1], the “EC50 (concentration of test compound corresponding to 50% enhancement action of sugar transport)” value is 0.73 µg/mL.
As to `COCC(=O)N1[C@@H]2CCCC[C@H]2NC2=C(C(=O)NC2)[C@H]1c1cccc2cc(C)[nH]c12` [Example 12], the “EC50 (concentration of test compound corresponding to 50% enhancement action of sugar transport)” value in series [1] was 0.63 µg/mL. Further, the Degree of hypoglycemia in series [3] (setting [7]) turned out to be 34%. The Permeation coefficient in series [2] is recorded as 20 10^−7 cm/sec.
`CSc1ccsc1[C@@H]1C2=C(CNC2=O)N[C@@H]2CCCC[C@H]2N1C(=O)CO` [Example 18]: the “EC50 (concentration of test compound corresponding to 50% enhancement action of sugar transport)” value in series [1] was determined as 3.1 µg/mL. In addition, the figures for the Degree of hypoglycemia in series [5] (setting [6]) and in series [5] (setting [7]) were 21% and 41%, respectively.
With `O=C1NCC2=C1[C@@H](c1cccc3ccsc13)N(C(=O)CO)[C@@H]1CCCC[C@H]1N2` [Example 8], the “EC50 (concentration of test compound corresponding to 50% enhancement action of sugar transport)” value in series [1] came out at 0.61 µg/mL. Moreover, the Degree of hypoglycemia in series [5] (setting [6]) turned out to be 26%; in series [5] (setting [7]), 23%.
On to `O=C1NCC2=C1[C@@H](c1cccc3ccoc13)N(C(=O)C(F)(F)F)[C@@H]1CCCC[C@H]1N2` [Example 7], for which, in series [1], the “EC50 (concentration of test compound corresponding to 50% enhancement action of sugar transport)” value turned out to be 1.94 µg/mL.
For the compound `C=Cc1ccccc1[C@@H]1C2=C(CNC2=O)N[C@@H]2CCCC[C@H]2N1C(=O)CO` [Example 19], the “EC50 (concentration of test compound corresponding to 50% enhancement action of sugar transport)” value in series [1] turned out to be 0.45 µg/mL. Further, the Degree of hypoglycemia in series [5] (setting [6]) is listed as 31%; in series [5] (setting [7]) it was 36%. The Permeation coefficient in series [2] was 10 10^−7 cm/sec.
